Measured values as given in patent US20230286973A1, “PROTEIN SECRETION INHIBITORS” (KEZAR LIFE SCIENCES, priority 2020, published 2023).
pEC50, pIC50: −log10 of the molar value.

Experiments:
[1] = Liver Microsome Stability Assay (mouse); details: mouse liver microsomes, with NADPH, 1.0 uM compound
Procedure: (§1) Stability of a compound was assessed in the presence of liver microsomes from various sources—mouse, rat, monkey and human liver microsomes. 1.0 uM compound, 0.4% DMSO in 0.1 M Potassium Phosphate with 1.0 mg/mL liver microsomes, were incubated at 37° C. with or without 1 mM NADPH. The samples were quenched at 0, and 30 minutes.

[2] = tested on: IL-2-FL/Gaussia Luciferase; test: Dox Induced IL2-FL-Gluc Assay; format: cell-based; details: for pIC50: 24 hr Dox induction, 293FRT/TO cells, mean, read-out: 24 hr Dox Inducible IL2FLGluc 293FRT/TO: Mean IC50; for 24 hr Dox Inducible IL2FLGluc 293FRT/TO: IL2/PD1: ratio of IL2FLGluc IC50 to PD1ssGluc IC50, '<=>' given where both are I.A.
Method in brief: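 Reporter is Gaussia luciferase fused to the 3′ end of full-length IL-2 (aa 1-153), expressed from a doxycycline-inducible T-REx construct in stably selected Flp-In 293 cells. Compounds were co-added with doxycycline and incubated at 37° C, 5% CO2.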

[3] = tested on: HER3-ss+4aa/Gaussia Luciferase; test: Dox-Induced Her3-ss-Gluc Assay; format: cell-based; details: 24 hr Dox induction; 293FRT/TO cells; mean; read-out: 24 hr Dox Inducible Her3(ss + 4)Gluc 293FRT/TO: Mean IC50
Method in brief: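 Expression of a Gaussia luciferase reporter carrying the HER3 signal sequence plus 4 amino acids is induced by doxycycline in stably transfected Flp-In 293 T-REx cells. Compounds are added with doxycycline at 37° C., 5% CO2. Undefined stereocentres denote stereoisomer mixtures.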

[4] = Liver Microsome Stability Assay (human); details: human liver microsomes, with NADPH, 1.0 uM compound
Procedure: as §1

[5] = tested on: multiple myeloma cell line U266B1; test: U266 Cell Viability Assay; format: cell-based, human; details: Homo sapiens, U-266, 48 h, U266B1 cells, Celltiter-Glo
Method in brief: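 48 h treatment, 37° C./5% CO2, RPMI 1640 + 10% FBS; viability by CellTiter-Glo luminescence.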

[6] = Liver Microsome Stability Assay (rat); details: rat liver microsomes, with NADPH, 1.0 uM compound
Procedure: as §1

[7] = tested on: TNFα-FL/Gaussia Luciferase; test: Dox Induced TNFα-FL-Gluc Assay; format: cell-based; details: for pIC50: 24 hr Dox induction, 293FRT/TO cells, mean, read-out: 24 hr Dox Inducible TNFaFLGluc 293FRT/TO: Mean IC50; for 24 hr Dox Inducible TNFaFLGluc 293FRT/TO: TNF/PD1: ratio of TNFaFLGluc IC50 to PD1ssGluc IC50, '<=>' given where both are I.A.
Method in brief: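 Cells are seeded one day ahead, then treated with compound plus doxycycline at 37 °C, 5% CO2. The stable Flp-In 293 T-REx line expresses full-length TNFα (amino acids 1-233) with Gaussia luciferase fused to its 3′ end, inducibly via T-REx.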

[8] = Liver Microsome Stability Assay (monkey); details: monkey liver microsomes, with NADPH, 1.0 uM compound
Procedure: as §1

[9] = tested on: multiple myeloma cell line NCI-H929; test: H929 Cell Viability Assay; format: cell-based, human; details: Homo sapiens, NCI-H929, 48 h, NCI-H929 cells, Celltiter-Glo
Method in brief: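 Plate the myeloma cells in RPMI 1640 with 10% FBS, add serially diluted compound, incubate for 48 hours at 37° C, then add CellTiter-Glo and read luciferase signal.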

[10] = tested on: PD1-ss+10aa/Gaussia Luciferase; test: Dox-Induced PD1-ss-Gluc Assay; format: cell-based; details: 24 hr Dox induction; 293FRT/TO cells; mean; read-out: 24 hr Dox Inducible PD1ssGluc 293FRT/TO: Mean IC50
Method in brief: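 Doxycycline-induced expression of a PD1-ss+10aa/Gaussia luciferase reporter is measured in stable Flp-In 293 T-REx cells. Compound dilutions containing doxycycline are added one day after plating and incubated at 37 °C, 5% CO2. Values for unassigned stereocentres refer to stereoisomer mixtures.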

Row | Liver Microsome Stability (Multiple Species): Mouse - % Remaining after 30 min w/NADPH [1] | pIC50 [2] | pIC50 [3] | Liver Microsome Stability (Multiple Species): Human - % Remaining after 30 min w/NADPH [4] | pEC50 [5] | Liver Microsome Stability (Multiple Species): Rat - % Remaining after 30 min w/NADPH [6] | pIC50 [7] | Liver Microsome Stability (Multiple Species): Monkey - % Remaining after 30 min w/NADPH [8] | pEC50 [9] | pIC50 [10] | SMILES | 24 hr Dox Inducible IL2FLGluc 293FRT/TO: IL2/PD1 [2] | 24 hr Dox Inducible TNFaFLGluc 293FRT/TO: TNF/PD1 [7]
1 | 0.5% | 4.96 | 5.50 | 0.28% | 4.69 | 0.9% | 4.67 | 0.35% | 4.78 | 5.94 | O=C(Nc1nc([C@@H]2CCN(c3ccccn3)C2)cs1)c1cccn1Cc1ccncc1 [Compound E43, (R)-N-(4-(1-(pyridin-2-yl)pyrrolidin-3-yl)thiazol-2-yl)-1-(pyridin-4-ylmethyl)-1H-pyrrole-2-carboxamide] | 9.6 | 18.8
2 | 0.24% | 5.57 | 5.88 | 0.5% | < 4.60 | 0.72% | 4.94 | 0.59% | 4.64 | 6.34 | O=C(Nc1nc([C@H]2CCN(c3ccccn3)C2)cs1)c1cccn1Cc1ccncc1 [Compound E44, (S)-N-(4-(1-(pyridin-2-yl)pyrrolidin-3-yl)thiazol-2-yl)-1-(pyridin-4-ylmethyl)-1H-pyrrole-2-carboxamide] | 6 | 25.5
3 | 2.25% | 5.63 | 5.84 | 0.19% | 4.85 | 1.2% | 5.22 | 0.23% | 4.76 | 6.27 | O=C(Nc1nc([C@H]2CCCN(c3ccccn3)C2)cs1)c1cccn1Cc1ccncc1 [Compound E45, (S)-N-(4-(1-(pyridin-2-yl)piperidin-3-yl)thiazol-2-yl)-1-(pyridin-4-ylmethyl)-1H-pyrrole-2-carboxamide] | 4.5 | 11.4
4 | 0.55% | 5.84 | 5.84 | 0.57% | 4.86 | 2.13% | 5.39 | 5.23% | 4.98 | 6.26 | O=C(Nc1nc([C@@H]2CCCN(c3ccccn3)C2)cs1)c1cccn1Cc1ccncc1 [Compound E47, (R)-N-(4-(1-(pyridin-2-yl)piperidin-3-yl)thiazol-2-yl)-1-(pyridin-4-ylmethyl)-1H-pyrrole-2-carboxamide] | 2.6 | 7.43
5 | 0.23% | 5.26 | 5.36 | 0.06% | < 4.60 | 0.64% | < 4.60 | 0.08% | < 4.60 | 5.71 | O=C(NC1=NC(CCc2ccccc2)CS1)c1cccn1Cc1ccncc1 (centres unmarked) [Compound E50] | 2.8 | >12.8
6 | 0.08% | < 4.60 | < 4.60 | 0.01% | < 4.60 | 0.98% | < 4.60 | 0.06% | < 4.60 | < 4.60 | O=C(NC1=NC(/C=C/c2ccccc2)CS1)c1cccn1Cc1ccncc1 (centres unmarked) [Compound E51] | 1 | 

The remaining lines, values behind:

Row | SMILES | Liver Microsome Stability (Multiple Species): Mouse - % Remaining after 30 min w/NADPH [1] | pIC50 [2] | pIC50 [3] | Liver Microsome Stability (Multiple Species): Human - % Remaining after 30 min w/NADPH [4] | pEC50 [5] | Liver Microsome Stability (Multiple Species): Rat - % Remaining after 30 min w/NADPH [6] | pIC50 [7] | Liver Microsome Stability (Multiple Species): Monkey - % Remaining after 30 min w/NADPH [8] | pEC50 [9] | pIC50 [10] | 24 hr Dox Inducible IL2FLGluc 293FRT/TO: IL2/PD1 [2] | 24 hr Dox Inducible TNFaFLGluc 293FRT/TO: TNF/PD1 [7]
7 | COc1ccc(O[C@H]2CCC[C@H](c3csc(NC(=O)c4cccn4Cc4ccncc4)n3)C2)nc1 [Compound E41, N-(4-((1S,3S)-3-((5-methoxypyridin-2-yl)oxy)cyclohexyl)thiazol-2-yl)-1-(pyridin-4-ylmethyl)-1H-pyrrole-2-carboxamide] | 0.41% | 6.27 | 6.24 | 0.33% | 4.84 | 0.61% | 5.81 | 0.34% | 5.11 | 6.52 | 1.8 | 5.2
8 | COc1ccc(O[C@@H]2CC[C@H](c3csc(NC(=O)c4cccn4Cc4ccncc4)n3)C2)nc1 [Compound E42, N-(4-((1S,3R)-3-((5-methoxypyridin-2-yl)oxy)cyclopentyl)thiazol-2-yl)-1-(pyridin-4-ylmethyl)-1H-pyrrole-2-carboxamide] | 0.18% | 5.59 | 5.95 | 0.09% | < 4.60 | 0.38% | 5.09 | 0.26% | 4.76 | 6.33 | 5.5 | 17.2
9 | O=C(Nc1nc([C@H]2CCCN2c2cccnc2)cs1)c1cccn1Cc1ccncc1 [Compound E46, (R)-N-(4-(1-(pyridin-3-yl)pyrrolidin-2-yl)thiazol-2-yl)-1-(pyridin-4-ylmethyl)-1H-pyrrole-2-carboxamide] | 22.1% | 6.94 | 7.22 | 7.36% | < 4.60 | 1.85% | 6.28 | 0.6% | 5.44 | 7.54 | 3.9 | 18.1
10 | O=C(Nc1nc([C@H]2CCCN2c2ccncc2)cs1)c1cccn1Cc1ccncc1 [Compound E48, (R)-N-(4-(1-(pyridin-4-yl)pyrrolidin-2-yl)thiazol-2-yl)-1-(pyridin-4-ylmethyl)-1H-pyrrole-2-carboxamide] | 2.74% | 5.11 | 4.87 | 0.93% | < 4.60 | 0.45% | < 4.60 | 0.12% | < 4.60 | 5.10 | 0.99 | >3.17
